Entries after “also recorded” stand apart in the source; their conditions may differ.
Assays:
[1] = tested on: total FOXO; test: Western blot, total FOXO in IMR-32 cells; format: cell-based, human; conditions: 150 ppb (of each compound)
Description: (§1) IMR-32 and AML12 cells were seeded on 6-well plates, and then treated with vehicle and various compounds for 6 and 24 hr, as described above. After treatments, cells were rinsed with ice-cold PBS, and lysed in the ice-cold RIPA buffer containing complete proteinase and phosphotase inhibitors (Themo-Fisher Scientific, Waltham, Mass.) on ice for 30 min. Cell lysates were collected using a cell scraper and transfer pipette, and then centrifuged at 12000 g for 30 min at 4° C. to remove the DNA pellet and obtain the protein extract. Protein levels in the supernatant of these cell lysates were determined using the Pierce Micro-BCA protein assay kit (Themo Scientific-Piece Biotechnology, Rockford, Ill.) according to the manufacturer's protocol.
(§2) For Western blot analysis, five micrograms of total proteins from vehicle- and compound(s)-treated cells were subjected to SDS-PAGE gel separation, and then transferred to PVDF membranes, as described previously (Reddy, Liu et al. 2008 Science). Membranes were blocked in a phosphate-buffered saline (PBS) containing 5% (w/v) of bovine serum albumin (Sigma, St. Louis, Mo.), and incubated with specific primary antibodies followed by the incubation with HRP-conjugated anti-mouse or anti-rabbit secondary antibodies (1:5000 dilution, Cell Signaling Inc.). All primary antibodies except G6PC (Santa Cruz), Actb (Li-COR, Lincoln, Nebr.), Elf2bε and pElf2bε (Abcam, Cambridge, Mass.) were purchased from Cell Signaling Inc. Positive signals on the membrane blots were detected using the Amersham's enhanced chemiluminescence Western Blotting Prime Detection reagents (GE healthcare Lifescience, Pittsburgh, Pa.). Images of these luminescence signals on the membrane blots were captured using the LI-COR Odyssey Fc Image system (Lincoln, Nebr.). […] Protein band densities in the Western blots were determined using the Li-COR Image studio software or NIH ImageJ software, and then normalized by Actb level in each sample. […]

[2] = tested on: Nicastrin; test: Real-time RT-PCR, Nicastrin in IMR-32 cells; format: cell-based, human
Description: (§3) Human IMR-32 cells were seeded on gelatinized 6-well (6.5×10^5 cells/well) or 24-well (1.3×10^5 cells/well) plates, while mouse liver AML-12 cells were cultured on uncoated 6-well (3.33×10^5 cells/well) or 24-well (6.7×10^4 cells/well) plates. Cells were treated with vehicle (control) or various compounds for 6, 24 or 48 hr. Total RNA from these cells was using Trizol (Invitrogen) according to the Manufacturer's protocol, and then incubated with DNase I to remove any potential contaminated genomic DNA. Then RNA samples were subjected to real-time PCR analysis using the Applied-Bioscience's RT kit and predesigned Taqman probes (Invitrogen), as described previously (Lan et al EMBO J 2003). Three to six samples were analyzed in each treatment group. Data were normalized by Actin B (Actb) or Glyceraldehyde Phosphate Dehydrogenase (Gapdh) levels in each sample, and are presented as mean±sem of 3-6 samples.

[3] = tested on: pFOXO4 T28; test: Western blot, pFOXO4 T28 in IMR-32 cells; format: cell-based, human; conditions: individual compound, 150 ppb
Description: as §1
(§4) For Western blot analysis, five micrograms of total proteins from vehicle- and compound(s)-treated cells were subjected to SDS-PAGE gel separation, and then transferred to PVDF membranes, as described previously (Reddy, Liu et al. 2008 Science). Membranes were blocked in a phosphate-buffered saline (PBS) containing 5% (w/v) of bovine serum albumin (Sigma, St. Louis, Mo.), and incubated with specific primary antibodies followed by the incubation with HRP-conjugated anti-mouse or anti-rabbit secondary antibodies (1:5000 dilution, Cell Signaling Inc.). All primary antibodies except G6PC (Santa Cruz), Actb (Li-COR, Lincoln, Nebr.), Elf2bε and pElf2bε (Abcam, Cambridge, Mass.) were purchased from Cell Signaling Inc. Positive signals on the membrane blots were detected using the Amersham's enhanced chemiluminescence Western Blotting Prime Detection reagents (GE healthcare Lifescience, Pittsburgh, Pa.). Images of these luminescence signals on the membrane blots were captured using the LI-COR Odyssey Fc Image system (Lincoln, Nebr.). The same membrane blot was striped and re-blotted with another antibody as described in the GE WB ECL-prime-detection protocol (GE healthcare Lifescience, Pittsburgh, Pa.). Protein band densities in the Western blots were determined using the Li-COR Image studio software or NIH ImageJ software, and then normalized by Actb level in each sample. Data are presented as mean±sem of three samples per each group.

[4] = tested on: rat brain cortex mitochondria; test: OCR of calcium-stressed rat brain cortex mitochondria (SeaHorse); format: biochemical; conditions: calcium (10 μM) and 150 ppb compound; control 1,677, calcium alone 1,066
Description: The following example describes an experiment performed in the SeaHorse external flux analyzer; an instrument for measuring the respiration rate of mitochondria expressed as the oxygen consumption rate, or OCR. The experiment in question used mitochondria from the brain cortex of normal rats, maintained on normal laboratory chow which had not been fortified with any additional selenium sources.
An identical sample of the same mitochondrial preparation was treated in exactly the same manner as the control sample except that calcium (10 micromolar final concentration) was added to stress or damage the mitochondria by depolarizing them. As shown (bottom line) the OCR dropped from a value of 1,677 to 1,066 pMoles/min O2.
Again, identical samples of rat brain cortex mitochondria were incubated as above except that they contained calcium (10 μM) and 150 ppb of compounds D and E, respectively. C was not tested. It is evident that the OCR of the compound-treated, calcium-stressed mitochondria were restored to near control levels, i.e. 1,564 pMoles/min O2 in the case of compound D and 1,531 pMoles/min O2 in the case of compound E.

[5] = tested on: pGSK3b; test: Western blot, pGSK3b in AML-12 cells; format: cell-based, mouse; conditions: individual compounds, 6 or 24 hr
Description: as §1, §2

[6] = tested on: pElf2be; test: Western blot, pElf2be S539 in AML-12 cells; format: cell-based, mouse; conditions: for increased phosphorylation of Elf2be: individual compounds, 6 or 24 hr
Description: as §1, §4

[7] = tested on: pFOXOs; test: Western blot, FOXO phosphorylation (pFOXOs) in AML-12 cells treated with individual compounds; format: cell-based, mouse; conditions: 150 ppb, 6 or 24 hr
Description: as §1, §2

[8] = tested on: Tau; test: Western blot, ratio of phosphorylated Tau to total Tau in IMR-32 cells; format: cell-based, human; conditions: 150 ppb, 24 hr
Description: as §1
For Western blot analysis, five micrograms of total proteins from vehicle- and compound(s)-treated cells were subjected to SDS-PAGE gel separation, and then transferred to PVDF membranes, as described previously (Reddy, Liu et al. 2008 Science). […] All primary antibodies except G6PC (Santa Cruz), Actb (Li-COR, Lincoln, Nebr.), Elf2bε and pElf2bε (Abcam, Cambridge, Mass.) were purchased from Cell Signaling Inc. Positive signals on the membrane blots were detected using the Amersham's enhanced chemiluminescence Western Blotting Prime Detection reagents (GE healthcare Lifescience, Pittsburgh, Pa.). […]

[9] = tested on: pTau S400/T403/S404; test: Western blot, pTau S400/T403/S404 in IMR-32 cells; format: cell-based, human; conditions: 150 ppb, 24 hr
Description: as §1, §2

[10] = tested on: Gsk3b; test: Real-time RT-PCR, Gsk3b in IMR-32 cells; format: cell-based, human
Description: as §3

[11] = tested on: pAKT; test: Western blot, pAKT in AML-12 cells; format: cell-based, mouse; conditions: for increased phosphorylation of AKT: individual compounds, 6 or 24 hr
Description: as §1, §4

[12] = tested on: HEK293T cells; test: Fluorescence analysis of mitochondrial potential in HEK293T cells; format: cell-based, human; conditions: for MT potential (Mitotracker Orange fluorescence): 4.5 hr; for MT potential / mitochondrial activity in kidney cells: dose not stated
Description: HEK293T cells were cultured in 8-chamber glass slides (1×10^4 cells/chamber) for 24 hours, and then treated with various concentrations of compounds or its respective sulfur analogs (dissolved in sterilized water) for 4.5 hr. These compound-treated cells were rinsed twice with PBS, and incubated with Mitotracker Orange Fluorescence Dye (Invitrogen) at 37° C. for 30 min, and then replaced with fresh PBS according to the Manufacturer's protocol. Then fluorescent signals (mitochondrial potential) in these living cells were recorded using a Zeiss Axio Vert.A1 fluorescence microscope (Thornwood, N.Y.). At least three samples in each treatment group were analyzed under the fluorescent microscope.

[13] = tested on: C2C12 cells; test: Quantitative analysis of mitochondrial potential in C2C12 cells; format: cell-based, mouse; conditions: for MT potential: 24 hr, compared to control
Description: For C2C12 cells, equal number of cells (1×10^4) were seeded on Corning 96-well clear-bottom and dark-wall cell culture plates (VWR), cultured in 10% FBS DMEM media for 24 hr., and then treated with vehicle (sterilized water), compound C and D and their sulfur analogs for 24 and 48 hrs. These vehicle- or compound-treated cells were rinsed twice with PBS, incubated with Mitotracker Orange fluorescence dye at 37° C. for 30 min, and then replaced with PBS. Mitotracker Orange fluorescence intensities (mitochondrial potential) in these living cells were determined by a Bio-TeK Synergy HT Multi-Mode Fluorescence Microplate Reader (Winooski, Vt.). Eight samples per each treatment were examined for the above analysis, and data are presented as mean±sem of eight samples.

| Structure (SMILES) | total FOXO levels [1] | Nicastrin mRNA expression ([2]; 24 hr) | decrease of pFoxo4 (pFOXO4 T28) levels ([3]; 6 hr) | decrease of pFoxo4 (pFOXO4 T28) levels ([3]; 24 hr) | OCR (oxygen consumption rate) [4] | increased phosphorylation of Gsk3b [5] | increased phosphorylation of Elf2be [6] | FOXO phosphorylation (increased pFOXOs) [7] | ratio of total pTauS396 and pTauS400/T403/S404 to total Tau proteins [8] | phosphorylation of Tau at S400/T403/S404 [9] | Gsk3b mRNA expression ([10]; 6 hr) | Gsk3b mRNA expression ([10]; 24 hr) | increased phosphorylation of AKT [11] | MT potential / mitochondrial activity in kidney cells [12] | MT potential [13] | also measured |
| --- | --- | --- | --- | --- | --- | --- | --- | --- | --- | --- | --- | --- | --- | --- | --- | --- |
| C[Se]CC(NC(=O)CCC(N)C(=O)O)C(=O)O (stereo not drawn) [compound E, gamma-glutamyl-methylseleno-cysteine] | neither the CDE combination nor the individual C, D or E treatments brought about any change | did not inhibit, but instead stimulated | statistically significant | statistically significant | 1,531 pMoles/min O2 | did not observed the increased phosphorylation | did not observed the increased phosphorylation | did not increase FOXO phosphorylation | trend of reduced Tau phosphorylation | significantly down-regulated | did not significantly inhibit Gsk3b mRNA expression | significant increase of Gsk3b mRNA expression | did not observed the increased phosphorylation |  |  | levels of pElf2bε S539 ([6]; individual compound, 6 hr): slightly reduce; levels of pAKT ([11]; individual compound, 6 hr): slightly reduce |
| C[Se]C[C@H]1O[C@@H](n2cnc3c(N)ncnc32)C(O)C1O (stereo in doubt) [compound C, 5′-Methylselenoadenosine] | neither the CDE combination nor the individual C, D or E treatments brought about any change | significant decrease in Nicastrin mRNA expression | statistically significant | statistically significant |  | did not observed the increased phosphorylation | did not observed the increased phosphorylation | did not increase FOXO phosphorylation | significantly attenuated total phosphorylation of Tau protein | significantly inhibited the phosphorylation of Tau at S400/T403/S404 | significantly decreased | trend of decreased Gsk3b mRNA expression | did not observed the increased phosphorylation | enhanced MT potential | significantly enhanced MT potential | Nicastrin mRNA expression ([2]; 6 hr): trend towards reduced Nicastrin mRNA expression; MT potential (Mitotracker Orange fluorescence) ([12]; 37.5 ppb): enhanced MT potential; MT potential (Mitotracker Orange fluorescence) ([12]; 75 ppb): less effects on MT potential |
| Nc1ncnc2c1ncn2[C@@H]1O[C@H](C[Se]CC[C@@H](N)C(=O)O)C(O)C1O (stereo partly drawn) [compound D, 5′-Selenoadenosyl homocysteine] | neither the CDE combination nor the individual C, D or E treatments brought about any change | did not inhibit, but instead stimulated | statistically significant |  | 1,564 pMoles/min O2 | did not observed the increased phosphorylation | did not observed the increased phosphorylation | did not increase FOXO phosphorylation |  | had no effect on Tau phosphorylation at all tested serine/threonine residues | did not significantly inhibit Gsk3b mRNA expression | significant increase of Gsk3b mRNA expression | did not observed the increased phosphorylation | ineffective | significantly enhanced MT potential | MT potential (Mitotracker Orange fluorescence) ([12]; all tested doses (37.5 and 75 ppb)): did not affect MT potential; potency on MT potential relative to compound C ([13]; lower doses (37.5 and 75 ppb)): more potent than compound C; stimulation of mitochondrial activity over control levels ([13]; most effective dose): two-fold over control levels; also recorded: two-fold stimulation of mitochondrial activity |
